Test results from ChEMBL document CHEMBL6153032, “Discovery of a highly potent, N-terminal domain-targeting degrader of AR-FL/AR-V7 for the treatment of prostate cancer” (Eur J Med Chem, 2025).
Active and inactive are the calls of the source. No cut-off for these calls is given here.

Key:
[1] = target: T1, Protein cereblon/Androgen receptor (Homo sapiens, UniProt P10275+Q96SW2); experiment: PROTAC activity at full length Androgen receptor/CRBN in human 22Rv1 cells assessed as induction of full length androgen receptor degradation at 100 nM incubated for 12 hrs in presence of Thalidomide by Western blot analysis; format: cell-based
Target sequence in this assay (P10275 whole entry, looked up): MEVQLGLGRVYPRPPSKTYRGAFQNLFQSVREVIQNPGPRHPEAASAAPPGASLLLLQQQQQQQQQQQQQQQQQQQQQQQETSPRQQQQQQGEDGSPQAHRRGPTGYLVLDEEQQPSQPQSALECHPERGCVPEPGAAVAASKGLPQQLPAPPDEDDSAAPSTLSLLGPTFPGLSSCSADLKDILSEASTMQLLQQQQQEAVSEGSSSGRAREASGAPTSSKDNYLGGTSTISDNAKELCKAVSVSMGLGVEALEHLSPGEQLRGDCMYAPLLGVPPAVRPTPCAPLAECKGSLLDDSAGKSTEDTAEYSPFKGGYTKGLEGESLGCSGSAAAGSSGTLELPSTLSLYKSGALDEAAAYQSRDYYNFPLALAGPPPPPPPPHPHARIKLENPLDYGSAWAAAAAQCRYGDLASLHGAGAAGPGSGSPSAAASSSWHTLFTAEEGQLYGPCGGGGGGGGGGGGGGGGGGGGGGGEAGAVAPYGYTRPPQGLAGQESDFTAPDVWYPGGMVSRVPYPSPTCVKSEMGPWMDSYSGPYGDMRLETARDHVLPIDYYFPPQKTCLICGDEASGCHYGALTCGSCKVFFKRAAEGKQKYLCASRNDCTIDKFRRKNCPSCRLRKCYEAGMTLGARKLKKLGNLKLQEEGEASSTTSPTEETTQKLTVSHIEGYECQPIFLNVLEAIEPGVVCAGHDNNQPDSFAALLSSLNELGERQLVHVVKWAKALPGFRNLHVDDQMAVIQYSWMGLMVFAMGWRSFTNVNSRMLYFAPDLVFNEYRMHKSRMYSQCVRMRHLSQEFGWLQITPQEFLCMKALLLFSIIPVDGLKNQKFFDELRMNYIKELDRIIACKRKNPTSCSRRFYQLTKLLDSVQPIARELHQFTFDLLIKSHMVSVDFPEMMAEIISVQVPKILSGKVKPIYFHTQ
Target sequence in this assay (Q96SW2 whole entry, looked up): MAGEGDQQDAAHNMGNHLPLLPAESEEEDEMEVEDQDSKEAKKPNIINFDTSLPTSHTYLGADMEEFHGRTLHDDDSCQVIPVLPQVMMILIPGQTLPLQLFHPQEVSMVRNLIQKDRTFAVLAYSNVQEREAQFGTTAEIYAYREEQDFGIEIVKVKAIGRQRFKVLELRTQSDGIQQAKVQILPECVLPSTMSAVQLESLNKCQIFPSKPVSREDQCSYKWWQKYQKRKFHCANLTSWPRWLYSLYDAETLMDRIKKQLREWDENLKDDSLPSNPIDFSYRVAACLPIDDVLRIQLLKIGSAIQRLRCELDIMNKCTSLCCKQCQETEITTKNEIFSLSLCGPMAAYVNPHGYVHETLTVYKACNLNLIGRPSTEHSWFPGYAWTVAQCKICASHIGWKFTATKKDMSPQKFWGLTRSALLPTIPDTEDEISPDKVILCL

[2] = Metabolic stability in mouse liver microsome assessed as intrinsic clearance measured upto 45 mins by LC/MS analysis; format: ADME; conditions: liver microsomes, read-out: CLH
[3] = test system: Protein cereblon/Androgen receptor (Homo sapiens), P10275+Q96SW2 [UNDEFINED MUTATION]; experiment: PROTAC activity at AR-V7/CRBN in human 22Rv1 cells assessed as induction of AR-V7 degradation at 100 nM incubated for 12 hrs in presence of MLN4924 by Western blot analysis; format: cell-based; conditions: CWR22R
Protein cereblon/Androgen receptor (Homo sapiens), P10275+Q96SW2 [UNDEFINED MUTATION], sequence (P10275 whole entry, looked up, change not shown): as the sequence (P10275 whole entry, looked up) above
Protein cereblon/Androgen receptor (Homo sapiens), P10275+Q96SW2 [UNDEFINED MUTATION], sequence (Q96SW2 whole entry, looked up, change not shown): as the sequence (Q96SW2 whole entry, looked up) above

[4] = target: T1, Protein cereblon/Androgen receptor; experiment: PROTAC activity at full length Androgen receptor/CRBN in human 22Rv1 cells assessed as reduction in full length androgen receptor level at 100 nM incubated for 24 hrs by immunofluorescence analysis; format: cell-based
Target sequence in this assay (P10275 whole entry, looked up): as the sequence (P10275 whole entry, looked up) above
Target sequence in this assay (Q96SW2 whole entry, looked up): as the sequence (Q96SW2 whole entry, looked up) above

[5] = MRT (0 to infinity) in Sprague-Dawley rat 2 mg/kg, iv by LC-MS/MS analysis; format: ADME, organism-based; conditions: in vivo
[6] = test system: Protein cereblon/Androgen receptor (Homo sapiens), P10275+Q96SW2 [UNDEFINED MUTATION]; experiment: PROTAC activity at AR-V7/CRBN in human 22Rv1 cells assessed as reduction in AR-V7 level at 1 uM by Western blot analysis; format: cell-based; conditions: CWR22R, time 6.0 hrs
[7] = Toxicity in BALB/c mouse assessed as heart damage at 10 mg/kg, iv administered once daily for 21 days by H and E staining based analysis; format: organism-based; conditions: in vivo, 504 h, time 21 day
LNCaP = experiment: PROTAC activity at AR-V7/CRBN in human LNCaP cells assessed as reduction in AR-V7 level incubated for 24 hrs by Western blot analysis; format: cell-based; conditions: dose <= 5.0 µM
[8] = Toxicity in BALB/c mouse assessed as spleen damage at 10 mg/kg, iv administered once daily for 21 days by H and E staining based analysis; format: organism-based; conditions: in vivo, 504 h, time 21 day
CWR22R [9] = experiment: Induction of cell cycle arrest in human 22Rv1 cells assessed as accumulation of cells at G0/G1 phase at 500 nM incubated for 24 hrs by PI staining based flow cytometry analysis (reference value: 62.66%); format: functional
CWR22R [10] = experiment: Induction of cell cycle arrest in human 22Rv1 cells assessed as accumulation of cells at S phase at 500 nM incubated for 24 hrs by PI staining based flow cytometry analysis (reference value: […]%); format: functional
[11] = target: T1, Protein cereblon/Androgen receptor; experiment: PROTAC activity at full length Androgen receptor/CRBN in human LNCaP cells assessed as reduction in full length androgen receptor level incubated for 24 hrs by Western blot analysis; format: cell-based
[12] = target: Voltage-gated inwardly rectifying potassium channel KCNH2 (Homo sapiens, UniProt Q12809); experiment: Inhibition of hERG; format: toxicity
Voltage-gated inwardly rectifying potassium channel KCNH2, sequence (Q12809 whole entry): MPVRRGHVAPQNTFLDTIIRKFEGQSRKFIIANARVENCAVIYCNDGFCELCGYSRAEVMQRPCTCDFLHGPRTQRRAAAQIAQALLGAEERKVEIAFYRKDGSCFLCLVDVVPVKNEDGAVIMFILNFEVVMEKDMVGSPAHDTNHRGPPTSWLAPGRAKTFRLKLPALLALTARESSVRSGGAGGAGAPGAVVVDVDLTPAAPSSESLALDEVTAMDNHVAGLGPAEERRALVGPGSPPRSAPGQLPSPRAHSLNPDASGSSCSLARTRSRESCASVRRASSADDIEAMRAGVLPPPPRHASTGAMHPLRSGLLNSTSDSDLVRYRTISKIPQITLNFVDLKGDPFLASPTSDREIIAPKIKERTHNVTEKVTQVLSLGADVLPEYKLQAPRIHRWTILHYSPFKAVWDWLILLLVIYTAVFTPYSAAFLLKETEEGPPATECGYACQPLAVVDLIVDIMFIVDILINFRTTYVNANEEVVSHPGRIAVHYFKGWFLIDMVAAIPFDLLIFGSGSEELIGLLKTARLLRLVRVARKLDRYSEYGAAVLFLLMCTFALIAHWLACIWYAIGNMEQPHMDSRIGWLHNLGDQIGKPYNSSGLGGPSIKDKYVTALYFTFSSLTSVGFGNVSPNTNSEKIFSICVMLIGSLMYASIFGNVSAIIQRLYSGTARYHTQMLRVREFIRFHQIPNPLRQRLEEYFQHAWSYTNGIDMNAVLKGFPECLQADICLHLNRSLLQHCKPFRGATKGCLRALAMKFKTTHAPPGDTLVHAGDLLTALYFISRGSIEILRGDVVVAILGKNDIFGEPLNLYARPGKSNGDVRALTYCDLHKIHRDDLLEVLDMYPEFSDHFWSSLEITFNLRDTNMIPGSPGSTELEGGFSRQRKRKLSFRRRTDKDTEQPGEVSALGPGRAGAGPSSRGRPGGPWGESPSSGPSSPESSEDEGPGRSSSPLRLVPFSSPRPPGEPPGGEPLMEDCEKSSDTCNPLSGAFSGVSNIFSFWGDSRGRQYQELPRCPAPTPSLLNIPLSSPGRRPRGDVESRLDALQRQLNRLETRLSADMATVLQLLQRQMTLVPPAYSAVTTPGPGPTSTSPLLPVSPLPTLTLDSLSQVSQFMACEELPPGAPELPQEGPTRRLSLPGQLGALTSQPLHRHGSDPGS

CWR22R [13] = experiment: Induction of apoptosis in human 22Rv1 cells assessed as necrotic cells at 500 nM incubated for 48 hrs by Annexin V/FITC staining based flow cytometry analysis (reference value: 2.31 %); format: functional
CWR22R [14] = experiment: Antitumor activity against human 22Rv1 cells xenografted in BALB/c nude mouse assessed as reduction in AR-v7 level at 10 mg/kg, iv administered once daily for 21 days; format: functional, organism-based; conditions: time 21.0 day
hERG = hERG (Homo sapiens, UniProt Q12809); experiment: Inhibition of hERG at 10 uM relative to control; format: toxicity
hERG, sequence (Q12809 whole entry): as above

CWR22R [15] = experiment: Downregulation of TMPRSS2 mRNA level in human 22Rv1 cells incubated for 24 hrs by qRT-PCR analysis; format: functional, cell-based; conditions: dose 100-500 nM
CWR22R [16] = experiment: Antitumor activity against human 22Rv1 cells xenografted in BALB/c nude mouse assessed as redcution in tumor weight at 10 mg/kg, iv administered once daily for 21 days; format: functional, organism-based; conditions: time 21.0 day
[17] = target: T1, Protein cereblon/Androgen receptor; experiment: PROTAC activity at full length Androgen receptor/CRBN in human 22Rv1 cells assessed as induction of full length Androgen receptor degradation at 5 uM incubated for 24 hrs by Western blot analysis relative to control; format: cell-based
Target sequence in this assay (P10275 whole entry, looked up): as the sequence (P10275 whole entry, looked up) above
Target sequence in this assay (Q96SW2 whole entry, looked up): as the sequence (Q96SW2 whole entry, looked up) above

CWR22R [18] = experiment: Antiproliferative activity against human 22Rv1 cells incubated for 4 days by CCK-8 assay; format: functional, cell-based; conditions: 22Rv1, 96 h
CWR22R [19] = experiment: Antitumor activity against human 22Rv1 cells xenografted in BALB/c nude mouse assessed as reduction in AR level at 10 mg/kg, iv administered once daily for 21 days; format: functional, organism-based; conditions: time 21.0 day
[20] = Toxicity in BALB/c mouse assessed as lung damage at 10 mg/kg, iv administered once daily for 21 days by H and E staining based analysis; format: organism-based; conditions: in vivo, 504 h, time 21 day
CWR22R [21] = experiment: Induction of apoptosis in human 22Rv1 cells assessed as late apoptotic cells at 100 nM incubated for 48 hrs by Annexin V/FITC staining based flow cytometry analysis (reference value: 1.12 %); format: functional
CWR22R [22] = experiment: Induction of cell cycle arrest in human 22Rv1 cells assessed as accumulation of cells at S phase at 100 nM incubated for 24 hrs by PI staining based flow cytometry analysis (reference value: 28.73%); format: functional
[23] = Clearance in Sprague-Dawley rat 2 mg/kg, iv by LC-MS/MS analysis; format: ADME, organism-based; conditions: in vivo
[24] = target: T1, Protein cereblon/Androgen receptor; experiment: PROTAC activity at full length Androgen receptor/CRBN in human 22Rv1 cells assessed as induction of full length androgen receptor degradation at 100 nM incubated for 12 hrs in presence of MG132 by Western blot analysis; format: cell-based
Target sequence in this assay (P10275 whole entry, looked up): as the sequence (P10275 whole entry, looked up) above
Target sequence in this assay (Q96SW2 whole entry, looked up): as the sequence (Q96SW2 whole entry, looked up) above

[25] = Metabolic stability in rat liver microsome assessed as half life measured upto 45 mins by LC/MS analysis; format: ADME; conditions: liver microsomes
[26] = Tmax in Sprague-Dawley rat 2 mg/kg, iv by LC-MS/MS analysis; format: ADME, organism-based; conditions: in vivo
CWR22R [27] = experiment: Induction of apoptosis in human 22Rv1 cells assessed as late apoptotic cells at 500 nM incubated for 48 hrs by Annexin V/FITC staining based flow cytometry analysis (reference value: 1.12 %); format: functional
[28] = target: T1, Protein cereblon/Androgen receptor; experiment: PROTAC activity at full length Androgen receptor/CRBN in human LNCaP cells assessed as reduction in full length androgen receptor level at 1 uM by Western blot analysis; format: cell-based; conditions: time <= 4.0 hrs
Target sequence in this assay (P10275 whole entry, looked up): as the sequence (P10275 whole entry, looked up) above
Target sequence in this assay (Q96SW2 whole entry, looked up): as the sequence (Q96SW2 whole entry, looked up) above

CWR22R [29] = experiment: Inhibition of colony formation in human 22Rv1 cells assessed as reduction in colony formation incubated for 14 days; format: functional, cell-based; conditions: dose 1-100 nM, time 14.0 day
CWR22R [30] = experiment: Induction of apoptosis in human 22Rv1 cells assessed as early apoptotic cells at 500 nM incubated for 48 hrs by Annexin V/FITC staining based flow cytometry analysis (reference value: 2.08 %); format: functional
[31] = target: T1, Protein cereblon/Androgen receptor; experiment: PROTAC activity at full length Androgen receptor/CRBN in human 22Rv1 cells assessed as induction of full length Androgen receptor degradation at 1 uM incubated for 24 hrs by Western blot analysis relative to control; format: cell-based
Target sequence in this assay (P10275 whole entry, looked up): as the sequence (P10275 whole entry, looked up) above
Target sequence in this assay (Q96SW2 whole entry, looked up): as the sequence (Q96SW2 whole entry, looked up) above

CWR22R [32] = experiment: Induction of apoptosis in human 22Rv1 cells assessed as viable cells at 500 nM incubated for 48 hrs by Annexin V/FITC staining based flow cytometry analysis (reference value: 94.49%); format: functional; conditions: read-out: Activity
CWR22R [33] = experiment: Induction of apoptosis in human 22Rv1 cells assessed as viable cells at 100 nM incubated for 48 hrs by Annexin V/FITC staining based flow cytometry analysis (reference value: 94.49%); format: functional; conditions: read-out: Activity

For CC(C)(c1ccc(OCCNc2cccc3c2C(=O)N(C2CCC(=O)NC2=O)C3=O)cc1)c1ccc(OCc2cccc(N3CCOCC3)n2)cc1 (stereo unspecified), the Activity [1] was “Active”, the CLint scaled [2] was 296 mL/min/kg and the Activity [3] was “Active”. The Activity [4] was “Active”, the MRT inf [5] was 37.2 min and the Activity [6] was “Time-dependent-effect”. For the same compound, the Activity [7] was “Non-toxic”, the Activity (LNCaP) was “Dose-dependent-effect” and the Activity [8] was “Non-toxic”. The Activity (CWR22R [9]) was 39.88%, the Activity (CWR22R [10]) was 38.58% and the DC50 [11] was 180 nM. For the same compound, the Activity ([11]; dose <= 5.0 µM) was “Dose-dependent-effect”, the IC50 [12] was greater than 10000 nM and the Activity (CWR22R [13]) was 2.4%. For the same compound, the Activity (CWR22R [14]) was “Active”, the inhibition at 10 µM (hERG) was less than 40% and the Activity (CWR22R [15]) was “Dose-dependent-effect”. For the same compound, the Activity (CWR22R [16]) was “Active”, the Activity [17] was 90.2% and the IC50 (CWR22R [18]) was 38 nM. The Activity (CWR22R [19]) was “Active”, the Activity [20] was “Non-toxic” and the Activity (CWR22R [21]) was 12.29%. The Activity (CWR22R [22]) was 43.39%, the clearance [23] was 15.1 mL/min/kg and the Activity [24] was “Active”. It also gave a half-life [25] of 61.1 min, a Tmax [26] of 4.98 min and an Activity (CWR22R [27]) of 15.59%. For the same compound, the Activity [28] was “Dose-dependent-effect”, the inhibition (CWR22R [29]) was “Dose-dependent-effect” and the Activity (CWR22R [30]) was 16.93%. The Activity [31] was 89.2%, the viability at 0.5 µM (CWR22R [32]) was 65.1% and the viability at 0.1 µM (CWR22R [33]) was 71%.
